Measurements: the NIST ThermoML archive (doi:10.1021/je4004299)
Numbers after ± are expanded uncertainties.

Settings: for surface tension liquid-gas: Pendant drop shape; for mass density: 101.33 kPa, Liquid, Vibrating tube method

Row | Compound | surface tension liquid-gas (298.15 K) [mN/m] | mass density (298.15 K) [kg/m3] | surface tension liquid-gas (303.15 K) [mN/m] | mass density (303.15 K) [kg/m3] | surface tension liquid-gas (313.15 K) [mN/m] | mass density (313.15 K) [kg/m3] | surface tension liquid-gas (323.15 K) [mN/m] | mass density (323.15 K) [kg/m3] | surface tension liquid-gas (333.15 K) [mN/m] | mass density (333.15 K) [kg/m3] | surface tension liquid-gas (343.15 K) [mN/m] | mass density (343.15 K) [kg/m3]
1 | CC(O)C(=O)[O-].CCCCn1cc[n+](C)c1 [1-butyl-3-methylimidazolium lactate] | 42.7 ± 0.5 | 1100.2 ± 8 | 42.3 ± 0.5 | 1096.63 ± 8 | 41.9 ± 0.5 | 1089.79 ± 8 | 41.3 ± 0.5 | 1083.17 ± 8 | 40.6 ± 0.5 | 1076.42 ± 8 | 40 ± 0.5 | 1069.75 ± 8
2 | CCCC[n+]1ccn(C)c1.O=C([O-])c1ccccc1 [3-butyl-1-methylimidazolium benzoate] | 40.1 ± 0.5 | 1105.25 ± 8 | 39.7 ± 0.5 | 1102.19 ± 8 | 39.1 ± 0.4 | 1095.87 ± 8 | 38.7 ± 0.4 | 1089.66 ± 8 | 38.3 ± 0.4 | 1083.46 ± 8 | 37.8 ± 0.4 | 1077.22 ± 8
3 | CCCCn1cc[n+](C)c1.NCC(=O)[O-] [1-butyl-3-methylimidazolium glycinate] | 54.5 ± 0.6 | 1128.47 ± 8 | 53.6 ± 0.6 | 1125.91 ± 8 | 51.9 ± 0.6 | 1119.35 ± 8 | 50.5 ± 0.5 | 1112.78 ± 8 | 48.4 ± 0.5 | 1107.1 ± 8 | 46.8 ± 0.5 | 1100.5 ± 8
4 | CCCCn1cc[n+](C)c1.O=C([O-])CO [1-butyl-3-methylimidazolium glycolate] | 49.7 ± 0.5 | 1129.32 ± 8 | 49.2 ± 0.5 | 1125.95 ± 8 | 48.4 ± 0.5 | 1118.97 ± 8 | 47.6 ± 0.5 | 1111.78 ± 8 | 46.8 ± 0.5 | 1104.3 ± 8 | 46.1 ± 0.5 | 1097.73 ± 8
